Experimental data taken from patent publication US20210261636A1, “NEOANTIGENS EXPRESSED IN MULTIPLE MYELOMA AND THEIR USES” (Janssen Biotech, Inc., priority 2020, published 2021).

How the values were obtained:
CD8+ T cells = assay: Exogenous autologous healthy donor restimulation assay, TNFα and IFNγ production by CD8+ T cells; format: cell-based, human; set-up: Frequency (TNFα+ IFNγ+ CD8 T cells): unit not given here; conditions: for Fold change (CD8+) vs. DMSO: maximum CD8+ T-cell response (TNFα and IFNγ); for Fold change (CD8+) vs. DMSO / Frequency (TNFα+ IFNγ+ CD8 T cells): donor independent, peptide pool 10 μg/mL, healthy donors; for Frequency (TNFα+ IFNγ+ CD8 T cells): maximum CD8+ T-cell response; for Immunogenic (yes/no): positive if CD8+ and/or CD4+ double positive TNFα/IFNγ frequency >=3-fold over DMSO and at least 0.01%
Experimental: (§1) Immunogenicity responses were measured by estimating TNFα IFNγ double positive cells in the CD4+ and/or CD8+ T-cell populations. A response is considered positive if TNFα IFNγ double positive fraction was greater than or equal to three-fold over unstimulated cells (DMSO negative control) with a minimum frequency >=0.01%. […]
(§2) Overlapping 15-mer peptides were designed to span each indicated neoantigen. Their ability to activate T cells was assessed using known methods, such as the assay defnied as exogenous autologous normal donor restimulation assay. The peptides were used as pools using TNFα and IFNγ production by CD8^+ and CD4^+ T cells as a readout. Maximum frequency of CD8^+TNFα^+IFNγ^+ and CD4^+TNFα^+IFNγ^+ T cells and maximum fold change over background for each pool of peptides were analyzed, which were calculated as the highest frequency of CD8^+ TNFα^+IFNγ^+ and CD4^+ TNFα^+IFNγ^+ T cells and resulting fold change across the normal donors evaluated for the peptide.
(§3) CD1c+Dendritic Cells (CD1c+DC) isolated from human healthy PBMCs were thawed using media (IMDM (Gibco) supplemented with glutamine, HEPES, 5% human serum (Sigma), and 1× Pen-Strep). DC cells were resuspended in media supplemented with IL-4 (Peprotech, 20 ng/mL) and GM-CSF (Gibco, 20 ng/mL), plated in 6 well microplates, and rested overnight at 37° C. and 5% CO2 incubator. The following day, DC cells were counted and plated in a 96 well round bottom microplate at a concentration of 30,000 viable cells per well. Lyophilized neoantigen peptide pools (15-mer peptides with 8-mer overlapping peptide sequences) were solubilized in 100% DMSO with a stock concentration of 20 mg/mL Neoantigen peptides pools were added to DCs for a final concentration of 10 μg/mL and rested for 2 hours at 37° C. and 5% CO2 incubator. CEF Peptide Pool “Plus” (Cellular Technologies, Ltd.) was utilized as a positive control (each viral peptide at a final concentration of 4 ug/ml) and DMSO at the same final concentration (0.05%) as the experimental peptides was utilized as a negative control. After 2 hours, DC cells were irradiated with 50 gray of ionizing radiation. Autologous CD3+ Pan-T cells isolated from human normal PBMCs were thawed using media. Following irradiation, autologous Pan-T cells were added to the irradiated DCs at 300,000 viable cells per well. Human IL-15 (Peprotech) was added to all wells at final concentration of 10 ng/ml. Plates were incubated at 37° C. and 5% CO2 incubator for a total of 12 days. Media was refreshed every 2-3 days with IL-15 (R&D System, 10 ng/mL final concentration) and IL-2 (R&D systems, 10 IU/mL final concentration).
(§4) On Day 11, cells were re-stimulated with identical experimental peptide pools or controls, at same concentration as peptide stimulation on Day 1. Protein Inhibitor Cocktail (eBioscience) was added to every well and plate was incubated overnight for 14-16 hours at 37° C. and 5% CO2 incubator. On Day 12, cells were stained for surface and intracellular flow cytometry analysis. The cells were washed with PBS and stained with Live/Dead Fixable Aqua Dead Cell stain (Thermo-Fisher). Following the live/dead stain, cells were blocked using Biotin-Free Fc Receptor Blocker (Accurate Chemical & Scientific Corp). Extracellular cellular flow panel (1 μL/antibody per well in 50 μL) consisted of CD3 PerCP-Cy5.5 (Biolegend), CD4 BV421 (Biolegend), and CD8 APC-Cy7 (Biolegend). After extracellular staining, cells were fixed and permeabilized using Foxp3/Transcription Factor Staining Buffer Set (eBioscience) and stained for intracellular proteins (1:50 dilution) using TNFα FITC (R&D Systems) and IFNγ BV785 (Biolegend). Cells were washed and resuspended in stain buffer, analyzed, and recorded in a BD Celesta flow cytometer.
(§5) Flow cytometry analysis was conducted on FlowJo v10.6 software. Cells were gated on live, singlet, CD3+, CD4+ and CD8+ T cells. The CD8+ and CD4+ T cells were analyzed for TNFα and IFNγ expression. […]

CD4+ T cells = assay: Exogenous autologous healthy donor restimulation assay, TNFα and IFNγ production by CD4+ T cells; format: cell-based, human; set-up: Frequency (TNFα+ IFNγ+ CD4 T cells): unit not given here; conditions: donor independent, peptide pool 10 μg/mL, healthy donors; for Fold change (CD4+) vs. DMSO: maximum CD4+ T-cell response (TNFα and IFNγ); for Frequency (TNFα+ IFNγ+ CD4 T cells): maximum CD4+ T-cell response
Experimental: as §1, §2, §3, §4, §5

Row | Substance | Fold change (CD8+) vs. DMSO (CD8+ T cells) | Frequency (TNFα+ IFNγ+ CD8 T cells) (CD8+ T cells) | Immunogenic (yes/no) (CD8+ T cells) | Fold change (CD4+) vs. DMSO (CD4+ T cells) | Frequency (TNFα+ IFNγ+ CD4 T cells) (CD4+ T cells)
1 | AAGVVTEIEAAVKA [FUS17, gene fusion HBS1L-> ALDH8A1] | 5.31 | 0.13 | Yes | 2.11 | 0.012
2 | ACGACGAGFFIKQKCIEQRESRSLS [FUS22, gene fusion IGLL5-> COMMD3-BMI1, BMI1] | 89.07 | 0.11 | Yes | 0.86 | 0.006
3 | AFIYHAFVGSTKTAWRTTL [FUS13, gene fusion KCNQ5-> KCNQ5-IT1] | 3.96 | 0.033 | Yes | 8.79 | 0.057
4 | AGDVLFIPGISLKVHKVQHSKVINICN [AS55, alternative splicing, TYW5] | 96.05 | 0.17 | Yes | 27.71 | 0.042
5 | AKFWSDISINRAPSFG [AS94, alternative splicing, TTLL7] | 97.14 | 2.72 | Yes | 62.53 | 0.63
6 | ARHLLTLGTCGSTWP [FUS26, gene fusion P2RY6-> ARHGEF17] | 7.07 | 0.1 | Yes | 2.46 | 0.026
7 | ARWFTREQGSEN [FUS12, gene fusion NUDT12-> LINC02115] | 24.68 | 0.58 | Yes | 2.77 | 0.027
8 | CEIMPLQSYILL [AS37, alternative splicing, FAM13A] | 17.37 | 0.32 | Yes | 576.132 | 0.21
9 | CKVCQNCKNPKMARAS [AS23, alternative splicing, KMT2C] | 3.05 | 0.065 | Yes | 18 | 0.063
10 | CRERGLQEAEGDVAAL [FUS40, gene fusion KLF2-> TPM4] | 18.3 | 0.43 | Yes | 1.26 | 0.024
11 | DLFDEFDNSRLVSRSWFFFYLRNKWNLALGF [AS24, alternative splicing, ST3GAL6] | 1300 | 0.13 | Yes | 613.88 | 3.14
12 | DLNQDGYNGNLNQSVEVIYVSSPLHKGDHACFKVFSMVCVGAVIITDF [AS64, alternative splicing, ITGA8] | 6.83 | 0.8 | Yes | 376.11 | 0.57
13 | DMEVFLKEASTNQHNTLIHLTLTFST [AS73, alternative splicing, SMC5] | 3 | 0.02 | Yes | 72.58 | 0.11
14 | DPTTKRSRLTPKLHFLVERNPRWSQEQRKYL [AS92, alternative splicing, MSI2] | 41.24 | 0.073 | Yes | 31.67 | 0.048
15 | DVAVICSGRRSARDP [FUS4, gene fusion CD5L-> FCRL1] | 3.1 | 0.04 | No | 7.13 | 0.029
16 | DVAVICSGVPVADVS [FUS5, gene fusion CD5L-> FCRL1] | 4.59 | 0.079 | Yes | 6.97 | 0.021
17 | EGTPFEDGKSYSLCFL [AS78, alternative splicing, UBE2B] | 29.32 | 0.52 | Yes | 3.14 | 0.024
18 | ERSHSKKKDGLVRNDGPGFPPMFSTSENTNLD [AS54, alternative splicing, SETBP1] | 0.73 | 0.008 | Yes | 90.535 | 0.033
19 | FALMASLGIPQTMAA [FUS56, gene fusion ZNF772-> VN1R1] | 2.73 | 0.007 | Yes | 115.03 | 0.75
20 | FGTSHMMVRHF [AS33, alternative splicing, CFAP54] | 47.27 | 0.49 | Yes | 2.78 | 0.009
21 | FLQKHGNENTVLMLETLSEIRYGYVSCVCCPLLSPYGRCLN [AS26, alternative splicing, AGFG1] | 84.36 | 0.75 | Yes | 5.7 | 0.097
22 | FSMRPAFGETALGCKKW [AS19, alternative splicing, GABRR2] | 140 | 0.031 | Yes | 23.16 | 0.12
23 | FSQNMNTKMIRGTERKQQYYGLQILE [AS134, alternative splicing, XPO1] | 4.51 | 0.091 | Yes | 1.429 | 0.02
24 | FU524 (SGLEAIQRGYETFYSE) | 259.11 | 0.48 | Yes | 3.13 | 0.014
25 | GEKILFIRVKFYFSLILFLWEDSEFELGEI [AS9, alternative splicing, GAS2] | 358.4 | 1.99 | Yes | 20.874 | 0.099
